This note sets out measurements from patent US20250360143A1, “COMPOSITIONS AND METHODS FOR PHA[…] OF STROKE AND […] REPERFUSION INJURY” (priority 2022, published 2025).

Where a name gives a salt, the structure may show the parent alone. Read-outs that look alike come from different tables or passages of the source.

Common to all, as to experiment: cell-based
The target of one experiment is T1, hP2X4R (Homo sapiens, UniProt Q99571).
T1 construct: expressed in transfected cells; host or cells: HEK-293
T1 sequence (Q99571 1-388): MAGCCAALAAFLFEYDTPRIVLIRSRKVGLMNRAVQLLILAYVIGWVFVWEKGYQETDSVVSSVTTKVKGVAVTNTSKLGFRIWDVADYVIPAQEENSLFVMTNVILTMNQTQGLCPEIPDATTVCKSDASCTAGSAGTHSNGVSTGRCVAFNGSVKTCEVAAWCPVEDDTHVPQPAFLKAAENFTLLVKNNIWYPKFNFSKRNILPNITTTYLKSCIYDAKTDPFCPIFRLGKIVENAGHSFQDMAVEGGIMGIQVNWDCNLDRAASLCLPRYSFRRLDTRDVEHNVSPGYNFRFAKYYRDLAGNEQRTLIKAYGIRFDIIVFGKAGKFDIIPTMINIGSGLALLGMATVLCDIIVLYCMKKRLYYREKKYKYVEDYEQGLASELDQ
The experiment is classed as cell-based. The following applies: for inhibition at 30 µM: HEK293, read-out: hP2X4R % inhib.

Another experiment concerns the target T2, hP2X3R (Homo sapiens, UniProt P56373).
T2 construct: expressed in transfected cells; host or cells: CHO-K1
T2 sequence (P56373 1-397): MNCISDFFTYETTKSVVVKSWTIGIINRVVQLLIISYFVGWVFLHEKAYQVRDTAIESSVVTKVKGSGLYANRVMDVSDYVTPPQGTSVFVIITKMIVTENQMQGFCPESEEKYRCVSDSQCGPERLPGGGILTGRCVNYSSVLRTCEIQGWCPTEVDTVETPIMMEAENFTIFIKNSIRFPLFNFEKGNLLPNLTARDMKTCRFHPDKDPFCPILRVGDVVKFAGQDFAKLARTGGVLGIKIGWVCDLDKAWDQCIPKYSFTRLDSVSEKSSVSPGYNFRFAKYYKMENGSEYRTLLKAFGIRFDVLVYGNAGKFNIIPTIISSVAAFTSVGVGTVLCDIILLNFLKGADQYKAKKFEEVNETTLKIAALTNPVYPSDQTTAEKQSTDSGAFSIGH
The format is cell-based. To be noted: for inhibition at 30 µM: CHO-K1, read-out: hP2X3R % inhib.

In the next experiment the target is T3, hP2X2/3R (Homo sapiens, UniProt P56373+Q9UBL9).
T3 construct: expressed in transfected cells; host or cells: CHO-K1
T3 sequence (Q9UBL9 1-471): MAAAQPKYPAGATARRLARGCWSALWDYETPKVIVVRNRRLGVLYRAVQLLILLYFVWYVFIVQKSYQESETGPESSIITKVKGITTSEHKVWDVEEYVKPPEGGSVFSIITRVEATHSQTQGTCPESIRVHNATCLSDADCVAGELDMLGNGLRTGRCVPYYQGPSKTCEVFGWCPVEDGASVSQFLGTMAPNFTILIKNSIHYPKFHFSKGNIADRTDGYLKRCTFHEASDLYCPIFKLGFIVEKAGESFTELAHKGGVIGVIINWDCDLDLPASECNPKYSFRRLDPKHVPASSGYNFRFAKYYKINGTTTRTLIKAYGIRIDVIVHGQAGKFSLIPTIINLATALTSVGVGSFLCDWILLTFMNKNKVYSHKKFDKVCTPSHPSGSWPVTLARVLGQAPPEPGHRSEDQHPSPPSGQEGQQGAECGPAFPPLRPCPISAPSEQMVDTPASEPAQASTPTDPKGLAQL
T3 sequence (P56373 1-397): T2 sequence (P56373 1-397)
The experiment is classed as cell-based. To be noted: for inhibition at 30 µM: CHO-K1, read-out: hP2X2/3R % inhib.

A further experiment deals with T4, hP2X1R (Homo sapiens, UniProt P51575).
T4 construct: expressed in transfected cells; host or cells: CHO-K1
T4 sequence (P51575 1-399): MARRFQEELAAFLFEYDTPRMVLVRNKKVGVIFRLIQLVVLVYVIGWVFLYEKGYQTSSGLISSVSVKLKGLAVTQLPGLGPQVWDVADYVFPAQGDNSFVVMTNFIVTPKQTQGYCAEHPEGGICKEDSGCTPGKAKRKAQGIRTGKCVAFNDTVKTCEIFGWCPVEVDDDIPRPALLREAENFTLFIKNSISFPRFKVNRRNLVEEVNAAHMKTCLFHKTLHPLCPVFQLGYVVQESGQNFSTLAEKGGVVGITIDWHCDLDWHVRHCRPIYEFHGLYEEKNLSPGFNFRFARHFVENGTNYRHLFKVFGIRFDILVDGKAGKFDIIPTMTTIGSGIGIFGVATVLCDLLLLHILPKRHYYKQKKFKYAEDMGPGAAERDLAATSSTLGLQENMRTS
The following applies: for inhibition at 30 µM: CHO-K1, percent inhibition at 30 μM, agonist α,β-MeATP 1.0 μM, read-out: hP2X1R % inhib.

[1] abbreviates: percent inhibition at 30 μM, agonist α,β-MeATP 1.0 μM.
Setting [2] is: percent inhibition at 30 μM, agonist α,β-MeATP 5.0 μM.

Regarding `CC(=O)NCc1ccc2ccc3c(c2c1)NC(=O)CC(=O)N3c1cccc(-c2noc(=S)[nH]2)c1.CCN(CC)CC` [Compound 21i, N-((2,4-Dioxo-5-(3-(5-thioxo-4,5-dihydro-1,2,4-oxadiazol-3-yl)phenyl)-2,3,4,5-tetrahydro-1H-naphtho[1,2-b][1,4]diazepin-10-yl)methyl) acetamide triethylamine salt], the “hP2X4R inhibitory activity relative to 22a, in words” value at hP2X4R was “inactive”. This molecule gave a hP2X4R % inhib. on hP2X4R (percent inhibition at 30 μM, agonist CTP 10 μM) of 16%. The molecule also displayed a hP2X3R % inhib. on hP2X3R (setting [1]) of 9%. Also, the hP2X2/3R % inhib. at hP2X2/3R (setting [2]) is on record as −5%.

As for `CCN(CC)CC.NCc1ccc2ccc3c(c2c1)NC(=O)CC(=O)N3c1cccc(-c2noc(=S)[nH]2)c1` [Compound 21q, 10-(Aminomethyl)-5-(3-(5-thioxo-4,5-dihydro-1,2,4-oxadiazol-3-yl)phenyl)-1,5-dihydro-2H-naphtho[1,2-b][1,4]diazepine-2,4(3H)-dione triethylamine salt], at hP2X4R, the hP2X4R % inhib. was found to be 9%. For the same molecule, the hP2X3R % inhib. on hP2X3R came out at 9%. The hP2X2/3R % inhib. on hP2X2/3R was found to be 0%. In addition, the hP2X1R % inhib. at hP2X1R was found to be 8%.

`CCN(CC)CC.[N-]=[N+]=NCc1ccc2ccc3c(c2c1)NC(=O)CC(=O)N3c1cccc(-c2noc(=S)[nH]2)c1` [Compound 21g, 10-(azidomethyl)-5-(3-(5-thioxo-4,5-dihydro-1,2,4-oxadiazol-3-yl)phenyl)-1,5-dihydro-2H-naphtho[1,2-b][1,4]diazepine-2,4(3H)-dione triethylamine salt] came in with a hP2X4R % inhib. on hP2X4R of 6%. At hP2X3R, the hP2X3R % inhib. is 13%. On hP2X2/3R, the hP2X2/3R % inhib. is 4%. For the same molecule, at hP2X1R, the hP2X1R % inhib. is reported as 8%.

At hP2X4R (agonist CTP 10 μM (~EC80)), `Cc1cc(-c2noc(=S)[nH]2)cc(N2C(=O)CC(=O)Nc3c2ccc2ccccc32)c1` [Compound 21r, 5-(3-Methyl-5-(5-thioxo-4,5-dihydro-1,2,4-oxadiazol-3-yl)phenyl)-1,5-dihydro-2H-naphtho[1,2-b][1,4]diazepine-2,4(3H)-dione] returned an IC50 of 14 µM. For the same molecule, the results for the inhibition at 30 µM on hP2X3R (setting [1]), on hP2X2/3R (setting [2]) and on hP2X1R were 12%, 5% and 16%, respectively.

With `CCc1cc2c(c3ccccc13)NC(=O)CC(=O)N2c1cccc(-c2noc(=S)[nH]2)c1` [Compound 21p, 7-Ethyl-5-(3-(5-thioxo-4,5-dihydro-1,2,4-oxadiazol-3-yl)phenyl)-1,5-dihydro-2H-naphtho[1,2-b][1,4]diazepine-2,4(3H)-dione triethylamine salt], on hP2X4R (agonist CTP 10 μM (~EC80)), the concentration for half-maximal inhibition (IC50) was 5.13 µM. Moreover, the inhibition at 30 µM came to 6% at hP2X3R (setting [1]), 10% at hP2X2/3R (setting [2]) and 6% on hP2X1R.

With `CCN(CC)CC.O=C1CC(=O)N(c2cccc(-c3noc(=S)[nH]3)c2)c2cc(-c3ccccc3)c3ccccc3c2N1` [Compound 211, 7-Phenyl-5-(3-(5-thioxo-4,5-dihydro-1,2,4-oxadiazol-3-yl)phenyl)-1,5-dihydro-2H-naphtho[1,2-b][1,4]diazepine-2,4(3H)-dione triethylamine salt], on hP2X4R, the half-maximal inhibitory concentration (IC50) stood at 20.7 µM. This molecule also returned a hP2X3R % inhib. on hP2X3R of 11%. Also, the hP2X2/3R % inhib. at hP2X2/3R was 10%. The hP2X1R % inhib. at hP2X1R is 14%.

Turning to `O=C1CC(=O)N(c2cccc(-c3noc(=S)[nH]3)c2)c2cc(C#Cc3ccccc3)c3ccccc3c2N1` [Compound 21m, 7-(Phenylethynyl)-5-(3-(5-thioxo-4,5-dihydro-1,2,4-oxadiazol-3-yl)phenyl)-1,5-dihydro-2H-naphtho[1,2-b][1,4]diazepine-2,4(3H)-dione], the inhibition at 30 µM is -4% at hP2X4R, 7% at hP2X3R (setting [1]), 5% on hP2X2/3R (setting [2]) and 14% at hP2X1R.

In the case of `CCCCC#Cc1cc2c(c3ccccc13)NC(=O)CC(=O)N2c1cccc(-c2noc(=S)[nH]2)c1` [Compound 21o, 7-(Hex-1-yn-1-yl)-5-(3-(5-thioxo-4,5-dihydro-1,2,4-oxadiazol-3-yl)phenyl)-1,5-dihydro-2H-naphtho[1,2-b][1,4]diazepine-2,4(3H)-dione], the inhibition at 30 µM at hP2X4R came to 15%; on hP2X3R (setting [1]), 18%; on hP2X2/3R (setting [2]), 1%; at hP2X1R, 16%.

Regarding `CCN(CC)CC.[N-]=[N+]=NCc1ccc2c(Br)cc3c(c2c1)NC(=O)CC(=O)N3c1cccc(-c2noc(=S)[nH]2)c1` [Compound 21h, 10-(azidomethyl)-7-bromo-5-(3-(5-thioxo-4,5-dihydro-1,2,4-oxadiazol-3-yl)phenyl)-1,5-dihydro-2H-naphtho[1,2-b][1,4]diazepine-2,4(3H)-dione triethylamine salt], on hP2X4R, the hP2X4R % inhib. is on record as 8% and the “hP2X4R inhibitory activity relative to 22a, in words” value was “inactive”. For the same molecule, the hP2X3R % inhib. on hP2X3R came out at 15%. Also, at hP2X2/3R, the hP2X2/3R % inhib. is given as −4%. Further, at hP2X1R, the hP2X1R % inhib. is recorded as −13%.

With `O=C1CC(=O)N(c2cc(-c3noc(=S)[nH]3)ccn2)c2ccc3ccccc3c2N1` [Compound 21s, 5-(4-(5-Thioxo-4,5-dihydro-1,2,4-oxadiazol-3-yl)pyridin-2-yl)-1,5-dihydro-2H-naphtho[1,2-b][1,4]diazepine-2,4(3H)-dione triethylamine salt], on hP2X4R, the “hP2X4R inhibitory activity relative to 22a, in words” value was “reduce”. The same molecule gave a half-maximal inhibitory concentration (IC50) at hP2X4R (agonist CTP 10 μM (~EC80)) of 13.5 µM. Besides, the results for the inhibition at 30 µM at hP2X3R (setting [1]), on hP2X2/3R (setting [2]) and at hP2X1R were 18%, -6% and 18%, respectively.

Turning to `CCN(CC)CC.[N-]=[N+]=NCc1ccc2c3c(ccc2c1)N(c1cccc(-c2noc(=S)[nH]2)c1)C(=O)CC(=O)N3` [Compound 21j, 9-(Azidomethyl)-5-(3-(5-thioxo-4,5-dihydro-1,2,4-oxadiazol-3-yl)phenyl)-1,5-dihydro-2H-naphtho[1,2-b][1,4]diazepine-2,4(3H)-dione triethylamine salt], at hP2X4R, 21.3 µM corresponded to half-maximal inhibition (IC50) and the “hP2X4R inhibitory activity relative to 22a, in words” value was “destabilizing”. Further, at hP2X3R, the hP2X3R % inhib. is 0%. The hP2X2/3R % inhib. at hP2X2/3R is reported as 2%. Besides, the hP2X1R % inhib. at hP2X1R is on record as −5%.

For `O=C1CC(=O)N(c2cncc(-c3noc(=S)[nH]3)c2)c2ccc3ccccc3c2N1` [Compound 21t, 5-(5-(5-Thioxo-4,5-dihydro-1,2,4-oxadiazol-3-yl)pyridin-3-yl)-1,5-dihydro-2H-naphtho[1,2-b][1,4]diazepine-2,4(3H)-dione triethylamine salt], the “hP2X4R inhibitory activity relative to 22a, in words” value on hP2X4R is given as “reduce”. On hP2X4R (agonist CTP 10 μM (~EC80)), this molecule showed an IC50 of 14.6 µM. Further, the results for the inhibition at 30 µM on hP2X3R (setting [1]), at hP2X2/3R (setting [2]) and on hP2X1R were 6%, 25% and 15%, respectively.

As for “2′,3′-O-Trinitrophenyl-adenosine-5′-triphosphate [TNP-ATP, reference compound]”, the IC50 against hP2X3R worked out at 0.018 µM; on hP2X2/3R it was 0.064 µM; at hP2X1R, 0.12 µM.

In general, IC50 refers to the concentration that gives 50% inhibition.
